From patent US20090297510A1, “INHIBITION OF CALPAIN REDUCES ALLERGIC INFLAMMATION” (priority 2008, published 2009)

Columns and labels:
[1] = tested on: Balb/c mice; assay: FcεRI-mediated passive cutaneous anaphylaxis, Evans blue dye extravasation in ear; type: in vivo; conditions: 0.965 mg/mouse intraperitoneal, 1 h before DNP-BSA challenge i.v.; ears collected 30 min later; control DMSO; FIG. 2
Description: In particular, mice were injected locally in the ear tissue with anti-dinitrophenol (DNP) IgE (20 ng/mouse) a day before. Mice in the treatment group received 0.965 mg/mouse of calpain inhibitor III via intraperitoneal injection. Control group received diluent dimethyl sulfoxide (DMSO) only. One hour later, animals were injected with 100 μg of DNP-BSA in 200 μl 0.5% Evan blue dye via tail vein injection. Thirty minutes later, ear tissues were collected. Evan blue dyes were extracted and measure at 620 nm.
To examine the role of calpain in FcεRI-mediated passive cutaneous anaphylaxis in mice, dorsal sides of the ears of Balb/c mice were injected intradermally with 20 ng anti-DNP IgE (both left ears) in a 20 μl volume using a 30-gauge needle. After 24 h mice in the treatment group received 0.965 mg/mouse of calpain inhibitor III via intraperitoneal injection. Control group received diluent dimethyl sulfoxide (DMSO) only. […] For quantitation of Evans blue dye extravasation as a measure of anaphylaxis associated vascular hyperpermeability, 8-mm skin specimens were removed from the ears of mice, minced in 2 ml formamide, and incubated at 80° C. for 2 h in water bath to extract the dye. The absorbance of the extracted dye was read at 620 nm.

[2] = tested on: JNK phosphorylation in mast cells; assay: Western blot of IgE-dependent kinase phosphorylation in mast cell lysates; type: cell-based, mouse; conditions: BMMC, inhibitor or DMSO 1 hour, then TNP-BSA 10 ng/ml for various times, FIG. 4
Description: In particular, mouse bone marrow-derived mast cells (60 million) were sensitized overnight with 90 ml fresh culture medium and 30 ml TIB141-conditioned medium enriched in IgE directed against trinitrophenyl (TNP). Cells were then washed twice with RPMI 1640 and resuspended in 10% FBS-RPMI 1640 at 1 million cells/ml. Five ml of cells were aliquoted for each treatment. Calpain inhibitor 3 (CI3) or DMSO was added and to the sample and incubated at 37° C. in a 5% CO2 incubator for 1 hour. Then, TNP-BSA (10 ng/ml) was added to stimulate mast cells for various times as indicated. After incubation, cells were transferred to a 50 ml tube, and centrifuged at 500×g for 5 min at 4° C. Supernatants were discarded and cell pellets were kept on ice. Cell pellets were lysed with 30 μl ice-cold RIPA lysis buffer for each condition. Lysates were transferred to 1.5 ml tubes, vortexed for 10 seconds at the highest setting, pipetted 20 times, vortexed for 10 seconds again, and incubated for 20 minutes on ice. Subsequently, lysates were centrifuged at 15,000×g for 10 minutes in a cold room. Supernatants were then transferred to new tubes and used for Western blotting with antibodies to phospho-IκB, total IκB, phospho-p38, total p38, phospho-JNK, total JNK, phospho-ERK, total ERK and actin. […]

calpain inhibitor III
IgE-dependent passive cutaneous anaphylaxis (Evans blue dye extravasation, absorbance at 620 nm) [1]: reduced IgE-dependent passive cutaneous anaphylaxis
IgE-dependent JNK phosphorylation in mast cells [2]: reduced IgE-dependent JNK phosphorylation in mast cells
